Measured values as given in patent publication US20240124410A1, “SMALL MOLECULES AND THEIR USE AS MALT1 INHIBITORS” (University of Pittsburgh - Of the Commonwealth System of …, priority 2021, published 2024).
pIC50: −log10 of the molar value.

Key:
[1] = test system: IL-6 and IL-10 secretion in TMD8 cells; test: IL-6 and IL-10 secretion by TMD8 cells (ELISA); format: cell-based, human
Method: Expression of cytokines from cell culture supernatants was measured 24h after treatment with 0, 0.01, 0.03, 0.1, 0.3, 1, or 3 uM of compounds using the following ELISA kits according to the manufacturer's instructions: Human IL-2 ELISA (BioLegend Cat #431804), Human IL-6 ELISA (BioLegend Cat #430504), and Human IL-10 ELISA (BioLegend Cat #430604).

[2] = target: T1, BCL10-MALT1 interaction (Homo sapiens, UniProt Q9UDY8); test: ELISA-based protein-protein interaction assay, BCL10-MALT1 (FIG. 2F, 2H); His-tagged recombinant human full-length Bcl10 on plate, GST-tagged recombinant human full-length MALT1; parameters: GST-tagged recombinant human full-length MALT1 protein; GST; purchased Novus Biologicals H00010892-P01; conditions: compound preincubated with 100 ng GST-MALT1 for 1 hour, 100 ng His-Bcl10 on plate, one-site binding fit, read-out: IC50 for inhibition of BCL10-MALT1 binding (ELISA)
T1 sequence (Q9UDY8 1-824): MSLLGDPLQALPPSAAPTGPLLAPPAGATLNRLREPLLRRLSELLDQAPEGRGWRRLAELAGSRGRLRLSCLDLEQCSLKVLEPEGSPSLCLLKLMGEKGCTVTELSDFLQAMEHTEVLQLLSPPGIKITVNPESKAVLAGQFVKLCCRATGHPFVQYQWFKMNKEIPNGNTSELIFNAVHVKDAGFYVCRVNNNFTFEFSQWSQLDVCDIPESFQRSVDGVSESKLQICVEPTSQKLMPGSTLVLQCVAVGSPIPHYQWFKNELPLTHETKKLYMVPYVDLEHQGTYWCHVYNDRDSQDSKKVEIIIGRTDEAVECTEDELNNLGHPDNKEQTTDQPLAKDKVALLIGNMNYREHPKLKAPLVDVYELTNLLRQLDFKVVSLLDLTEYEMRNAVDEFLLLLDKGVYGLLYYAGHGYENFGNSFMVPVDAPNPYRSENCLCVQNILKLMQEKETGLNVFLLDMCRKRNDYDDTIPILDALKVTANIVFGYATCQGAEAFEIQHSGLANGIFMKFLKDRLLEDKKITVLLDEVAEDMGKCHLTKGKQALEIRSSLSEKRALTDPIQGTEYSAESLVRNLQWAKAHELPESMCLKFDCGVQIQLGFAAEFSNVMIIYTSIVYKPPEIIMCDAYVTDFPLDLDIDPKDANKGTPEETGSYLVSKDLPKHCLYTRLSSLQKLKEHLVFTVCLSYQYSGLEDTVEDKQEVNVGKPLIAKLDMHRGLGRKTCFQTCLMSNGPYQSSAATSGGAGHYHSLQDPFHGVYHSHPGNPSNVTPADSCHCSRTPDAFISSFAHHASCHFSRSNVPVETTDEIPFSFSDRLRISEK
Source text: FIG. 2. In silico screening identifies small molecules targeting the predicted BCL10-binding groove within MALT1 (Ig1-2). (A) We performed a structure-guided in silico screen of 3 million compounds, using the LibDock program from Discovery Studio 3.5, in order to identify candidate molecules that could potentially fit within the identified groove in the MALT1 Ig1-2 domain. Lipinski's rule of five filters (LipinskiRo5) were applied to enrich for compounds with drug-like properties. Potential compound hits were then screened for their ability to disrupt the MALT1-BCL10 interaction using SPR analysis. 9 candidate compounds were then subjected to a second, ELISA-based MALT1-BCL10 interaction assay, identifying 2 compounds that could disrupt the interaction in both SPR and ELISA assays. M1i-124 and M1i-1255 are the two compounds identified to disrupt the BCL10-MALT1 interaction. M1i-124 became our lead compound and M1i-1255 is partially characterized in FIG. 8. (B) Structure of M1i-124. (C) Model of M1i-124 docked onto the MALT1 Ig1-2 domain groove (PDB 3K0W). […] (E) SPR analysis was performed to determine the IC50 for M1i-124 disruption of the BCL10-MALT1 interaction in a dose-response assay. (F) ELISA analysis confirmed that M1i-124 disrupts the interaction between BCL10 and MALT1 in dose dependent fashion (left). […] Circles highlight sites that differ from parent compound, M1i-124. […]

pIC50 [2]: 5.07
SMILES: COc1ccc(CNS(=O)(=O)c2ccc(Cc3ccc(S(=O)(=O)NCc4ccc(OC)cc4)cc3)cc2)cc1 [M1i-124d1]
IL-6 secretion [1]: inhibit IL-6 and IL-10 secretion in a concentration-dependent manner | IL-10 secretion [1]: inhibit IL-6 and IL-10 secretion in a concentration-dependent manner
